Measured values taken from PubChem BioAssay (NCI).
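Compound exposure: 48 hours, 5 concentrations, 96-well plates. At the GI50, growth is halved. TGI: total growth inhibition.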

Columns and labels:
Experiment in all cases: DTP human tumour cell line panel, 48 h
[1] = test system: 786-0 renal
[2] = test system: A498 renal
[3] = test system: A549 NSCLC
[4] = test system: ACHN renal
[5] = test system: BT-549 breast
[6] = test system: CAKI-1 renal
[7] = test system: CCRF-CEM leukemia
[8] = test system: COLO 205 colon
[9] = test system: DU-145 prostate
[10] = test system: EKVX NSCLC
[11] = test system: HCC-2998 colon
[12] = test system: HCT-15 colon
[13] = test system: HL-60(TB) leukemia
[14] = test system: HOP-62 NSCLC
[15] = test system: HOP-92 NSCLC
[16] = test system: HS 578T breast
[17] = test system: HT29 colon
[18] = test system: IGROV1 ovarian
[19] = test system: K-562 leukemia
[20] = test system: KM12 colon
[21] = test system: LOX IMVI melanoma
[22] = test system: M14 melanoma
[23] = test system: MALME-3M melanoma
[24] = test system: MCF7 breast
[25] = test system: MDA-MB-231 breast
[26] = test system: MDA-MB-435
[27] = test system: MDA-MB-468 breast
[28] = test system: MOLT-4 leukemia
[29] = test system: NCI-H226 lung
[30] = test system: NCI-H23 lung
[31] = test system: NCI-H460 lung
[32] = test system: NCI-H522 lung
[33] = test system: NCI/ADR-RES ovarian
[34] = test system: OVCAR-3 ovarian
[35] = test system: OVCAR-4 ovarian
[36] = test system: OVCAR-5 ovarian
[37] = test system: OVCAR-8 ovarian
[38] = test system: PC-3 prostate
[39] = test system: RPMI-8226 leukemia
[40] = test system: RXF 393 renal
[41] = test system: SF-268 CNS
[42] = test system: SF-295 CNS
[43] = test system: SF-539 CNS
[44] = test system: SK-MEL-2 melanoma
[45] = test system: SK-MEL-28 melanoma
[46] = test system: SK-MEL-5 melanoma
[47] = test system: SK-OV-3 ovarian
[48] = test system: SN12C renal
[49] = test system: SNB-19 CNS
[50] = test system: SNB-75 CNS
[51] = test system: SR leukemia
[52] = test system: SW-620 colon
[53] = test system: T-47D breast
[54] = test system: TK-10 renal
[55] = test system: U251 CNS
[56] = test system: UACC-257 melanoma
[57] = test system: UACC-62 melanoma
[58] = test system: UO-31 renal

Molecule `CN1CCN(c2ccc(C(=O)/C=C/c3cc(C(F)(F)F)ccc3Cl)cc2)CC1` has a GI50 [1] of 2.22 µM, a TGI [1] of 5.74 µM and a GI50 [2] of 17.4 µM. For the same molecule, the TGI [2] was 32 µM, the GI50 [3] was 3.65 µM and the TGI [3] was 14.8 µM. For the same molecule, the GI50 [4] was 4.92 µM, the TGI [4] was 16.8 µM and the GI50 [5] was 5.42 µM. It also gave a TGI [5] of 20.4 µM, a GI50 [6] of 8.23 µM and a TGI [6] of 21.2 µM. It also gave a GI50 [7] of 2.17 µM, a TGI [7] of 5.93 µM and a GI50 [8] of 3.48 µM. The TGI [8] was 10.7 µM, the GI50 [9] was 5.5 µM and the TGI [9] was 20.5 µM. The GI50 [10] was 5.94 µM, the TGI [10] was 19 µM and the GI50 [11] was 1.81 µM. The TGI [11] was 3.2 µM, the GI50 [12] was 1.87 µM and the TGI [12] was 3.78 µM. The GI50 [13] was 2.14 µM, the TGI [13] was 7.53 µM and the GI50 [14] was 13.9 µM. It also gave a TGI [14] of 29.7 µM, a GI50 [15] of 3.79 µM and a TGI [15] of 18.1 µM. It also gave a GI50 [16] of 5.48 µM, a TGI [16] of 28.7 µM and a GI50 [17] of 2.01 µM. The TGI [17] was 5.02 µM, the GI50 [18] was 3.33 µM and the TGI [18] was 13 µM. The GI50 [19] was 2.17 µM, the TGI [19] was over 100 µM and the GI50 [20] was 3.1 µM. For the same molecule, the TGI [20] was 9.83 µM, the GI50 [21] was 1.63 µM and the TGI [21] was 2.99 µM. For the same molecule, the GI50 [22] was 3.13 µM, the TGI [22] was 10.9 µM and the GI50 [23] was 11.2 µM. For the same molecule, the TGI [23] was 23.4 µM, the GI50 [24] was 1.42 µM and the TGI [24] was 2.94 µM. For the same molecule, the GI50 [25] was 2.81 µM, the TGI [25] was 8.01 µM and the GI50 [26] was 2.14 µM. For the same molecule, the TGI [26] was 5.06 µM, the GI50 [27] was 1.59 µM and the TGI [27] was 3.48 µM. The GI50 [28] was 4.94 µM, the TGI [28] was 93.6 µM and the GI50 [29] was 4.55 µM. For the same molecule, the TGI [29] was 18.6 µM, the GI50 [30] was 3.89 µM and the TGI [30] was 14.2 µM. For the same molecule, the GI50 [31] was 8.73 µM, the TGI [31] was 22.3 µM and the GI50 [32] was 12.3 µM. The TGI [32] was 27.9 µM, the GI50 [33] was 3.5 µM and the TGI [33] was 12.8 µM. It also gave a GI50 [34] of 4.08 µM, a TGI [34] of 14.4 µM and a GI50 [35] of 10.7 µM. It also gave a TGI [35] of 29 µM, a GI50 [36] of 13.9 µM and a TGI [36] of 26.9 µM. For the same molecule, the GI50 [37] was 9.04 µM, the TGI [37] was 26.2 µM and the GI50 [38] was 3.06 µM. For the same molecule, the TGI [38] was 13.2 µM, the GI50 [39] was 1.77 µM and the TGI [39] was 4.68 µM. It also gave a GI50 [40] of 2.16 µM, a TGI [40] of 11.1 µM and a GI50 [41] of 14.1 µM. For the same molecule, the TGI [41] was 37.7 µM, the GI50 [42] was 6.89 µM and the TGI [42] was 19.8 µM. For the same molecule, the GI50 [43] was 1.92 µM, the TGI [43] was 4.38 µM and the GI50 [44] was 17 µM. For the same molecule, the TGI [44] was 32 µM, the GI50 [45] was 10.5 µM and the TGI [45] was 22.3 µM. It also gave a GI50 [46] of 3.71 µM, a TGI [46] of 15 µM and a GI50 [47] of 5.66 µM. It also gave a TGI [47] of 18.8 µM, a GI50 [48] of 4.32 µM and a TGI [48] of 16.4 µM. For the same molecule, the GI50 [49] was 8.95 µM, the TGI [49] was 21 µM and the GI50 [50] was 2.66 µM. For the same molecule, the TGI [50] was 15.6 µM, the GI50 [51] was over 100 µM and the TGI [51] was over 100 µM. It also gave a GI50 [52] of 2.08 µM, a TGI [52] of 4.02 µM and a GI50 [53] of 12.3 µM. The TGI [53] was 39.8 µM, the GI50 [54] was 13.5 µM and the TGI [54] was 29 µM. The GI50 [55] was 2.1 µM, the TGI [55] was 4.85 µM and the GI50 [56] was 10.4 µM. For the same molecule, the TGI [56] was 23.7 µM, the GI50 [57] was 10.9 µM and the TGI [57] was 22.8 µM. For the same molecule, the GI50 [58] was 4.09 µM and the TGI [58] was 16.4 µM.
